Reference: patent US11566007B2, “Ras inhibitors” (Revolution Medicines, Inc., priority 2019, dated 2023)
“And” between values parts separate entries of the source, which are not always exact repeats. Equal values may be shown once. Read-outs that look alike come from different tables or passages of the source.

Tests used:
[1] = biological target: NRAS G12C (Homo sapiens (Human), UniProt P01111+P62937, G12C); experiment: Ras-Raf (BRAF RBD) disruption / FRET / MOA assay, NRAS G12C; type: biochemical; settings: read-out: IC50* NRAS G12C FRET data
Sequence of NRAS G12C (P01111 whole entry G12C): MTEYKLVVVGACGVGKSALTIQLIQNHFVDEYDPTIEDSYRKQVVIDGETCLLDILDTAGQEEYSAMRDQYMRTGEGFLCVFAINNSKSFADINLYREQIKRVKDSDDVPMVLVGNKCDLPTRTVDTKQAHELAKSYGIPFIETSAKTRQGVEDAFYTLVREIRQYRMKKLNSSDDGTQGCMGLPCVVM
Sequence of NRAS G12C (P62937 whole entry): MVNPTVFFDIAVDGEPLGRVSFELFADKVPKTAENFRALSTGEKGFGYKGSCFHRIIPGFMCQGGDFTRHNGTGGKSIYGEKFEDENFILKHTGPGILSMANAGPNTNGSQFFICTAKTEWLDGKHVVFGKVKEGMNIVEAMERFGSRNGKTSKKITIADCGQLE
Outline: (§1)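 Ras:RAF disruption was scored as a fall in TR-FRET ratio relative to DMSO. Compound ranged in 3-fold steps over 10 points from 30 μM final; incubation ran 3 h at 25° C, detection antibodies a further 1.5 h. Reported as IC50.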

[2] = biological target: KRAS G13D (Homo sapiens (Human), UniProt P01116+P62937, G13D); experiment: Ras-Raf (BRAF RBD) disruption / FRET / MOA assay, KRAS G13D; type: biochemical; settings: read-out: IC50* KRAS G13D FRET data
Sequence of KRAS G13D (P01116-2 other isoform, or with tags, fused parts or gaps G13D): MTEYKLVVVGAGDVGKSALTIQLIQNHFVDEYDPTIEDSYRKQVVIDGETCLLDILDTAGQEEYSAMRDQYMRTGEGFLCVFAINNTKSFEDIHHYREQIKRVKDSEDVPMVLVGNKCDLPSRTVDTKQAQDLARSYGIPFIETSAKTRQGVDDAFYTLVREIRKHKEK
Sequence of KRAS G13D (P62937 whole entry): as the sequence (P62937 whole entry) above
Outline: as §1

[3] = biological target: KRAS WT (Homo sapiens (Human), UniProt P01116+P62937); experiment: Ras-Raf (BRAF RBD) disruption / FRET / MOA assay, KRAS WT; type: biochemical; settings: read-out: IC50* KRAS WT FRET data
Sequence of KRAS WT (P01116-2 other isoform, or with tags, fused parts or gaps): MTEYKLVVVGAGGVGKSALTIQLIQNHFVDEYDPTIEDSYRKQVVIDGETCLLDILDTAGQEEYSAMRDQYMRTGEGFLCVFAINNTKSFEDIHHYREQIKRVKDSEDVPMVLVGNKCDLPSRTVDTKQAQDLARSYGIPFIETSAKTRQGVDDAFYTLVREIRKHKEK
Sequence of KRAS WT (P62937 whole entry): as the sequence (P62937 whole entry) above
Outline: as §1

[4] = biological target: KRAS G12V (Homo sapiens (Human), UniProt P01116+P62937, G12V); experiment: Ras-Raf (BRAF RBD) disruption / FRET / MOA assay, KRAS G12V; type: biochemical; settings: read-out: IC50* KRAS G12V FRET data
Sequence of KRAS G12V (P01116-2 other isoform, or with tags, fused parts or gaps G12V): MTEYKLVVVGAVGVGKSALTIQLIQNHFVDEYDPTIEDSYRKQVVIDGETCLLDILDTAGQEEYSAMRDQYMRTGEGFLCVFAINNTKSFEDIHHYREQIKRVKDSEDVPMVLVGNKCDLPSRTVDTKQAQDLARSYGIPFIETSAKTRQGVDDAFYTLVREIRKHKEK
Sequence of KRAS G12V (P62937 whole entry): as the sequence (P62937 whole entry) above
Outline: as §1

[5] = test system: NCI-H358 (K-Ras G12C); experiment: CellTiter-Glo cell viability assay, NCI-H358; type: cell-based, human; settings: NCI-H358, 5-day treatment, class symbols, read-out: Additional H358 Cell Viability assay data (K-Ras G12C, IC50)
Outline: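 Four-parameter logistic fits were applied to luminescence data normalized against DMSO-treated wells. Readings were taken on day 5 following direct compound addition, after roughly 30 minutes at room temperature.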

[6] = biological target: K-Ras G13C (Homo sapiens (Human), UniProt P01116+P62937, G13C); experiment: Ras-Raf (BRAF RBD) disruption / FRET / MOA assay, KRAS G13C; type: biochemical; settings: KRAS G13C; Ras-Raf disruption/FRET/MOA assay; read-out: IC50* KRAS G13C FRET data
Sequence of K-Ras G13C (P01116-2 other isoform, or with tags, fused parts or gaps G13C): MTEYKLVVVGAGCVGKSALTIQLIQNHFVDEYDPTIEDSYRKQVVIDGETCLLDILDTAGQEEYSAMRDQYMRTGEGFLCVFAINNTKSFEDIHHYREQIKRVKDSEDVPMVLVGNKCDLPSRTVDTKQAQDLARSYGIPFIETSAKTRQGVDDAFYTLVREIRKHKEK
Sequence of K-Ras G13C (P62937 whole entry): as the sequence (P62937 whole entry) above
Outline: as §1

[7] = biological target: K-Ras G12C (Homo sapiens (Human), UniProt P01116+P62937, G12C); experiment: Ras-Raf (BRAF RBD) disruption / FRET / MOA assay, KRAS G12C; type: biochemical; settings: KRAS G12C; Ras-Raf disruption/FRET/MOA assay; read-out: IC50* KRAS G12C FRET data
Sequence of K-Ras G12C (P01116-2 other isoform, or with tags, fused parts or gaps G12C): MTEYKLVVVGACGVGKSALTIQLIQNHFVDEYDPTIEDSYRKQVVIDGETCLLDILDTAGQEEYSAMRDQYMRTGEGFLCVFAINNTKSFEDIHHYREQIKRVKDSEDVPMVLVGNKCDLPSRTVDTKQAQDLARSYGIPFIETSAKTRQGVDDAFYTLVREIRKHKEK
Sequence of K-Ras G12C (P62937 whole entry): as the sequence (P62937 whole entry) above
Outline: as §1

[8] = biological target: KRAS G12S (Homo sapiens (Human), UniProt P01116+P62937, G12S); experiment: Ras-Raf (BRAF RBD) disruption / FRET / MOA assay, KRAS G12S; type: biochemical; settings: Ras-Raf disruption/FRET/MOA assay; class symbols; read-out: KRAS G12S FRET data IC50
Sequence of KRAS G12S (P01116-2 other isoform, or with tags, fused parts or gaps G12S): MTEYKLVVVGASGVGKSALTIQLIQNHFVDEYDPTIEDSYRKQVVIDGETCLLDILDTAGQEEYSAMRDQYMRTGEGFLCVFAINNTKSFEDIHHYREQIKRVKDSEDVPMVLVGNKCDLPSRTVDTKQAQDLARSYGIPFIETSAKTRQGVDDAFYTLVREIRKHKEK
Sequence of KRAS G12S (P62937 whole entry): as the sequence (P62937 whole entry) above
Outline: as §1

[9] = biological target: KRAS G12D (Homo sapiens (Human), UniProt P01116+P62937, G12D); experiment: Ras-Raf (BRAF RBD) disruption / FRET / MOA assay, KRAS G12D; type: biochemical; settings: Ras-Raf disruption/FRET/MOA assay; class symbols; read-out: KRAS G12D FRET data IC50
Sequence of KRAS G12D (P01116-2 other isoform, or with tags, fused parts or gaps G12D): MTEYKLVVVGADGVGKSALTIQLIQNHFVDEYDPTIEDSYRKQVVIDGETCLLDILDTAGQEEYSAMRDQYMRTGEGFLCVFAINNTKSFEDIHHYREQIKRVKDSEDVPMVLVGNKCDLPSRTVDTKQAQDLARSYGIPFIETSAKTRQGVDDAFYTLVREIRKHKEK
Sequence of KRAS G12D (P62937 whole entry): as the sequence (P62937 whole entry) above
Outline: as §1

[10] = test system: NCI-H358 cells (K-Ras G12C); experiment: Potency assay: pERK in NCI-H358 cells; type: cell-based, human; settings: Homo sapiens, NCI-H358; H358 KRAS G12C; read-out: pERK EC50
Outline: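 Compounds are dosed as ten 3-fold dilutions from a 10 mM DMSO stock, in duplicate, and left on cells for 4 h at 37 °C, 5% CO2. Phospho-ERK1/2 is then quantified by AlphaLISA SureFire Ultra or In-Cell Western, and IC50 is derived from a 4-parameter sigmoid against log concentration.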

Compound	IC50 [1]	IC50 [2]	IC50 [3]	IC50 [4]	IC50 ([5]; Homo sapiens, NCI-H358, 120 h) [µM]	IC50 [6]	IC50 [7]	IC50 [8]	IC50 [9]	IC50 [5] [µM]	EC50 [10] [µM]
C=CC(=O)N1CC[C@H](C(=O)N(C)[C@H](C(=O)N[C@H]2Cc3cccc(c3)-c3ccc4c(c3)c(c(-c3ccccc3[C@H](C)OC)n4CC)CC(C)(C)COC(=O)[C@@H]3CCCN(N3)C2=O)C(C)C)C1 (atropisomer, axis not shown) [Example A114]	> 10 µM	> 10 µM	> 10 µM	> 10 µM	0.1 to 1	> 10 µM	> 10 µM	> 10 µM	> 10 µM	–	–
CCn1c(-c2cccnc2[C@H](C)OC)c2c3cc(ccc31)-c1cccc(c1)C[C@H](NC(=O)[C@H](C(C)C)N(C)C(=O)[C@H]1CCN(C(=O)/C=C/CN3CC(OC)C3)C1)C(=O)N1CCC[C@H](N1)C(=O)OCC(C)(C)C2 (atropisomer, axis not shown) [Example A203]	1 to 10 µM	> 10 µM	> 10 µM	> 10 µM	–	> 10 µM	1 to 10 µM	> 10 µM	> 10 µM	> 1	–
C=CC(=O)N1CC[C@H](C(=O)N(C)[C@H](C(=O)N[C@H]2Cc3ncc(n3C)-c3ccc4c(c3)c(c(-c3cccnc3[C@H](C)OC)n4CC)CC(C)(C)COC(=O)[C@@H]3CCCN(N3)C2=O)C(C)C)C1 (atropisomer, axis not shown) [Example A276]	1 to 10 µM	> 10 µM	> 10 µM	> 10 µM	> 1	> 10 µM	1 to 10 µM	> 10 µM	> 10 µM	–	–
C=CC(=O)N1CC[C@H](C(=O)N(C)[C@H](C(=O)N[C@H]2Cc3nc(cs3)-c3ccc4c(c3)c(c(-c3cccnc3[C@H](C)OC)n4CC)CC(C)(C)C/C=C/[C@@H]3CCCN(N3)C2=O)C(C)C)C1 (atropisomer, axis not shown) [Example A286]	> 10 µM	> 10 µM	> 10 µM	> 10 µM	> 1	> 10 µM	> 10 µM	> 10 µM	> 10 µM	–	–
C=CC(=O)N1CC[C@H](C(=O)N(C)[C@H](C(=O)N[C@H]2Cc3nc(cs3)-c3ccc4c(c3)c(c(-c3cccnc3[C@H](C)OC)n4CC)CC(C)(C)CCC[C@@H]3CCCN(N3)C2=O)C(C)C)C1 (atropisomer, axis not shown) [Example A288]	> 10 µM	> 10 µM	> 10 µM	> 10 µM	> 1	> 10 µM	> 10 µM	> 10 µM	> 10 µM	–	–
C/C=C(\C)S(=O)(=O)N1CC[C@H](C(=O)N(C)[C@H](C(=O)N[C@H]2Cc3cccc(c3)-c3ccc4c(c3)c(c(-c3cccnc3[C@H](C)OC)n4CC)CC(C)(C)COC(=O)[C@@H]3CCCN(N3)C2=O)C(C)C)C1 (atropisomer, axis not shown) [Example A308]	> 10 µM	> 10 µM	> 10 µM	> 10 µM	0.1 to 1	1 to 10 µM	> 10 µM	> 10 µM	> 10 µM	–	–
CCn1c(-c2cccnc2COC)c2c3cc(ccc31)-c1cc(O)cc(c1)C[C@H](NC(=O)[C@H](C(C)C)N(C)C(=O)[C@H]1CCN(C(=O)C#C[C@@H]3CCCN3C)C1)C(=O)N1CCC[C@H](N1)C(=O)OCC(C)(C)C2 [Example A196]	0.01 to 0.1 µM and < 0.01 µM	0.1 to 1 µM and > 10 µM	1 to 10 µM and > 10 µM	0.1 to 1 µM and > 10 µM	–	0.01 to 0.1 µM and 0.1 to 1 µM	0.01 to 0.1 µM and < 0.01 µM	0.1 to 1 µM and > 10 µM	1 to 10 µM and > 10 µM	–	< 5
CCn1c(-c2cccnc2COC)c2c3cc(ccc31)-c1cc(O)cc(c1)C[C@H](NC(=O)[C@H](C(C)C)N(C)C(=O)[C@H]1CCN(C(=O)C#CCN3[C@@H](C)COC[C@@H]3C)C1)C(=O)N1CCC[C@H](N1)C(=O)OCC(C)(C)C2 [Example A209]	0.1 to 1 µM and < 0.01 µM	1 to 10 µM and > 10 µM	1 to 10 µM and > 10 µM	0.1 to 1 µM and > 10 µM	–	0.1 to 1 µM and > 10 µM	0.01 to 0.1 µM and < 0.01 µM	1 to 10 µM and > 10 µM	> 10 µM	–	< 5
C=CC(=O)C1C[C@@H](C(=O)N(C)[C@H](C(=O)N[C@H]2Cc3cc(O)cc(c3)-c3ccc4c(c3)c(c(-c3ccc5c(c3)CN(C)C5)n4CC)CC(C)(C)COC(=O)[C@@H]3CCCN(N3)C2=O)C(C)C)CN1 (stereo partly drawn) [Example A212]	0.1 to 1 µM and 1 to 10 µM	1 to 10 µM and > 10 µM	1 to 10 µM and > 10 µM	1 to 10 µM and > 10 µM	–	1 to 10 µM and > 10 µM	0.1 to 1 µM and 1 to 10 µM	1 to 10 µM and > 10 µM	> 10 µM	–	< 5
C=CC(=O)C1C[C@@H](C(=O)N(C)[C@H](C(=O)N[C@H]2Cc3cc(O)cc(c3)-c3ccc4c(c3)c(c(-c3ccccc3CCOC)n4CC)CC(C)(C)COC(=O)[C@@H]3CCCN(N3)C2=O)C(C)C)[C@@H](OC)N1 (stereo partly drawn) [Example A214]	100 nM to 1 µM and > 10 µM (2×)	> 10 µM	1 to 10 µM	> 10 µM	–	1 µM to 10 µM (3×) and > 10 µM	10 nM to 100 nM (2×) and 1 µM to 10 µM (2×)	1 µM to 10 µM (2×) and > 10 µM (2×)	> 10 µM	–	< 5
CCn1c(-c2ccccc2CCOC)c2c3cc(ccc31)-c1cc(O)cc(c1)C[C@H](NC(=O)[C@H](C(C)C)N(C)C(=O)c1ccc(NC(=O)/C=C/CN(C)C)cc1)C(=O)N1CCC[C@H](N1)C(=O)OCC(C)(C)C2 [Example A225]	100 nM to 1 µM and > 10 µM (2×)	> 10 µM	1 to 10 µM	> 10 µM	–	1 µM to 10 µM (3×) and > 10 µM	10 nM to 100 nM (2×) and 1 µM to 10 µM (2×)	1 µM to 10 µM (2×) and > 10 µM (2×)	> 10 µM	–	< 5
CCn1c(-c2cccnc2COC)c2c3cc(ccc31)-c1cc(O)cc(c1)C[C@H](NC(=O)[C@H](C(C)C)N(C)C(=O)[C@H]1CCN(C(=O)C#CC3(N(C)C)COC3)C1)C(=O)N1CCC[C@H](N1)C(=O)OCC(C)(C)C2 [Example A241]	0.01 to 0.1 µM	1 to 10 µM	1 to 10 µM	0.1 to 1 µM and 1 to 10 µM	–	0.1 to 1 µM	0.01 to 0.1 µM	0.1 to 1 µM and 1 to 10 µM	1 to 10 µM and > 10 µM	–	< 5
CO[C@@H](C)c1ncccc1-c1c2c3cc(ccc3n1CC(F)(F)F)-c1nnc(o1)C[C@H](NC(=O)[C@H](C(C)C)N(C)C(=O)[C@H]1CCN(C(=O)C#CC(C)(C)N3CCC3)C1)C(=O)N1CCC[C@H](N1)C(=O)OCC(C)(C)C2 [Example A423]	0.01 to 0.1 µM	> 10 µM	1 to 10 µM	1 to 10 µM	–	0.1 to 1 µM	0.01 to 0.1 µM	1 to 10 µM	> 10 µM	–	< 5
